The values below are quoted from earlier work in patent US20090318293A1, “AGRICULTURAL COMPOSITION” (PLANT IMPACT PLC, priority 2005, published 2009).

The data set deals with cotyledon growth, chlorophyll biosynthesis and cell elongation. The following applies: on cotyledon growth, chlorophyll biosynthesis and cell elongation in the systems studied.

The structures appear in SMILES notation.

As for `Cn1c(=O)c2c(ncn2C)n(C)c1=O` [caffeine, 3,7-Dihydro-1,3,7-trimethyl-1H-purine-2,6-dione], the cytokinin-like effect entry is “weak cytokinin-like effect”.
